Measured values: publication PMC10981743, “Network pharmacology, computational biology integrated surface plasmon resonance technology reveals the mechanism of ellagic acid against rotavirus” (Scientific Reports, 2024)

Molecular target: T1, TLR4; Recombinant human TLR4 protein (Active) (Homo sapiens, UniProt O00206)
T1 construct: commercial recombinant protein (Abcam, 'Active'); immobilised on CM5 chip by amine coupling
Assay: surface plasmon resonance (Biacore T200, TLR4 immobilised on CM5 chip)
Format: binding
Excerpt: surface plasmon resonance (Biacore T200, TLR4 immobilised on CM5 chip) on TLR4; Recombinant human TLR4 protein (Active)

T1 sequence (O00206 24-631 limits assumed): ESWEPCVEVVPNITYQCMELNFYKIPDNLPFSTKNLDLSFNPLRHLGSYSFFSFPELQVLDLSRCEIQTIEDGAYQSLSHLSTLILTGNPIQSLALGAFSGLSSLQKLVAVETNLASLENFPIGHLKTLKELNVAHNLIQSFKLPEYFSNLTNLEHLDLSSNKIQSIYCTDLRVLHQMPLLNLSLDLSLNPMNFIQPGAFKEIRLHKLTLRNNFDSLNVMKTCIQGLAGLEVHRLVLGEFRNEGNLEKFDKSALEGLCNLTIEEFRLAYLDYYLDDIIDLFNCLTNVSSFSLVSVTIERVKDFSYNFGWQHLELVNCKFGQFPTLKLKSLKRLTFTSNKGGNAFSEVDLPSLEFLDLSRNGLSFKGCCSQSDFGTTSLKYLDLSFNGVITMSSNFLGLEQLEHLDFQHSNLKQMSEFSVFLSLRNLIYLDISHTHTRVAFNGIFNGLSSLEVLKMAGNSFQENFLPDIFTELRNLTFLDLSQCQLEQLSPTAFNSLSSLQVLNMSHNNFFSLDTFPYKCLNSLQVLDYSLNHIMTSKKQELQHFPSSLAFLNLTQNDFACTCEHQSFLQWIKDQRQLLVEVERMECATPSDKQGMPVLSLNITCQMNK

`O=c1oc2c(O)c(O)cc3c(=O)oc4c(O)c(O)cc1c4c23` [Ellagic acid] gave a Kd of 19.2 µM.
